Test results from patent US20120258482A1, “PCNA […]” (INDIANA UNIVERSITY RESEARCH AND TECHNOLOGY CORPORATION, priority 2009, published 2012).

How the values were obtained:
Format in all cases: cell-based, human
[1] = tested on: PCNA isoform in MDA MB468 cells (p53-mutant); assay: 2D-PAGE anti-PCNA immunoblot after DOX exposure, MDA MB468; conditions: 5 μM DOX
Procedure: (§1) FIG. 7A is a Western blot analysis of p53 wild-type (MCF7) and p53-mutant (MDA-MB-468) breast carcinoma cell lines exposed to 5 μM DOX for the indicated times. Cell extracts (200 μg) were resolved by 2D-PAGE and immunoblotted with anti-PCNA antibodies. In FIG. 7B extracts from MCF7 cells (50 μg) treated with 5 μM DOX were separated by 12% SDS-PAGE and immunoblotted with anti-p21WAF1 antibodies. FIG. 7C is a Western blot analysis of glutathione-immobilized GST-p21 and GST-PIP (a.a. 139-160) fusion proteins incubated with untreated MCF7 cell extracts for 2 h at 4° C. and the pull-down fractions were resolved by 2D-PAGE and Western blotted for PCNA. PCNA isoforms were isolated from MCF7 extracts by incubation with PIP-affinity beads for ˜2 h and analyzed by 2D-PAGE using pH 4-7 IPG strips. Colloidal Coomassie stained spots (See FIG. 7D) were excised from the gel, trypsin digested, and sequenced by LC-MS/MS.
(§2) 2D-PAGE and mass spectrometry. Isoelectric focusing was performed using IPG strips and an IEF cell (BioRad) as previously described (Hoelz, D. J. et al. Proteomics 6, 4808-4816, 2006). […] Anti-PCNA (PC10) antibodies were obtained from Santa Cruz Biotech and anti-WAF1 (DF10) were from EMD Biosciences.
(§3) Although the description of Arm1 identifies a novel posttranslational mechanism in eukaryotic cells, its biological significance was still unclear. […]

[2] = tested on: p21WAF1/CIP1 in MCF7 cells; assay: Immunoblot with anti-p21WAF1 antibodies after DOX treatment; conditions: 5 μM DOX, 4 h after treatment
[3] = tested on: PCNA isoform in MCF7 cells (p53 wild-type); assay: 2D-PAGE anti-PCNA immunoblot after DOX exposure, MCF7; conditions: high-dose (5 μM) DOX
Procedure: as §1, §2, §3

## COc1cccc2c1C(=O)c1c(O)c3c(c(O)c1C2=O)C[C@@](O)(C(=O)CO)C[C@@H]3O[C@H]1C[C@H](N)[C@H](O)[C@H](C)O1 [DOX, doxorubicin]
[1]
  basic-shifted (methyl esterified) PCNA isoform: unable to identify the isoform
[2]
  induction of p21 expression: over 27 fold
[3]
  basic-shifted (methyl esterified) PCNA isoform, pI ~5.6: induced
